The values that follow come from PMC8049054, “Systematic Assessment of Fragment Identification for Multitarget Drug Design” (Chemmedchem, 2021).

The test system of test [1] is sEH, LTA4H, 5‐LOX, FXR, RXR. Kind of test: Orthogonal (secondary) assays, summary statements over the targets. The method, then:
For hit validation, we employed secondary assays with orthogonal readouts to confirm fragment activities. Biochemical activity assays were chosen for the enzymes sEH, LTA4H, and 5‐LOX. […] RXRα and FXR modulation was assessed in cell‐based hybrid reporter gene assays. All ten compounds were tested at a single concentration of 500 μM in the sEH and LTA4H activity assays and with a concentration of 100 μM on 5‐LOX, RXRα, and FXR. Fragments showing an inhibition greater than 50 % (sEH‐H and LTA4H) or greater than 70 % (5‐LOX) as well as the hits determined in the DSF experiments were further characterized in full concentration‐response curves between 0.1 and 1000 μM. […] As alternative cell‐free assay we employed isothermal titration calorimetry (ITC) to determine binding affinity of the fragments towards the LBDs of both nuclear receptors. ITC was performed with a protein concentration of 50 μM and compound concentrations of 250 μM. […]
% (5-LOX) as well as the hits determined in the DSF experiments were further measured with concentrations between 1000 µM and 0.1 µM (sEH-H and LTA4H) and between 300 µM and 1 µM (5-LOX). […] The 5-LOX activity assay was performed with one point per concentration and repeated 3 times Raw data was first analyzed in Microsoft Office Excel (2013), before IC50 curves were plotted and further analyzed using GraphPad Prism 7 and GraphPad Prism 8 for the shown graphs .
The eight approved drugs were measured in the orthogonal assay systems analogous to the fragments. […]
For the sEH-H and LTA4H, they were measured as triplicate in concentrations between 1000 µM and 1 µM and each measurement was repeated three times. For the 5-LOX they were measured as single point measurement in three different experiments with concentrations between 300 µM and 1 µM. […]
The sEH-H activity assay was performed adapted from Hahn et al.5 and Lukin et al.6. […] The Plate was measured every minute for 45 min. […]

The next test addresses T1, sEH-H (Homo sapiens, UniProt P34913).
T1 construct: For the expression of sEH-H and sEH-Fl transformed E.coli BL21 (DE3) cells were grown in 5052; made in house; host or cells: E. coli BL21 (DE3)
T1 sequence (P34913 235-555 limits assumed): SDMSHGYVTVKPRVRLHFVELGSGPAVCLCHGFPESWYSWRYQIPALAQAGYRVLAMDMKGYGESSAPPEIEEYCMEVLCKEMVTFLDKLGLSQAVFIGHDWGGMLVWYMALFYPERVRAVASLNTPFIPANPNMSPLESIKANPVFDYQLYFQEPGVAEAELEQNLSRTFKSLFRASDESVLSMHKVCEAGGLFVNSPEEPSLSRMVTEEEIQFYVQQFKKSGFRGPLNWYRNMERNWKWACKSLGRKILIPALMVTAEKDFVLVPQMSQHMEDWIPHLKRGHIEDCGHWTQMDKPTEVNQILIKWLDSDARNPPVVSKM
Kind of test: ITC measurement sEH-H. It counts as binding. The note with it: 25 °C, read-out: sEH K d. (Isothermal titration calorimetry measures the heat released or taken up as one component is titrated into another.)

Another test deals with T2, LTA4H (Homo sapiens, UniProt P09960).
T2 construct: made in house; host or cells: E. coli BL21 (DE3)
T2 sequence (P09960 1-611): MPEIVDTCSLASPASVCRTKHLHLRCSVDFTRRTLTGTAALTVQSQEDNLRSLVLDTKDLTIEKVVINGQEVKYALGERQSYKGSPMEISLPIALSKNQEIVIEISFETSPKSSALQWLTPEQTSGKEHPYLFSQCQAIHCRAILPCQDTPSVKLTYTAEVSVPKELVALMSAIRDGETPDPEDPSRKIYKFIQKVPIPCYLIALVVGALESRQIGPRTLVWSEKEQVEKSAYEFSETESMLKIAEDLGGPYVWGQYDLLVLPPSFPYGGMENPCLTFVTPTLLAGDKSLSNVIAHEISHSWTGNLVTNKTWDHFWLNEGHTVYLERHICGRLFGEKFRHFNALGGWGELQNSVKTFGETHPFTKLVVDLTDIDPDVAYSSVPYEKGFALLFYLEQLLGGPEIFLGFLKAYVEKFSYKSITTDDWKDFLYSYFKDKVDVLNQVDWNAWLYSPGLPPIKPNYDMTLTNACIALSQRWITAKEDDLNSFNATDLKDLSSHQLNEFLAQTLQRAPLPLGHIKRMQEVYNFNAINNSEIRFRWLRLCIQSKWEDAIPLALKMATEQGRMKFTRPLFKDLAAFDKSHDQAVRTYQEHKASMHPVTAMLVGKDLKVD
Put plainly: ITC measurement LTA4H. The note with it: 25 °C, read-out: LTA4H K d. It counts as binding.

For the compound `Cc1cc(=O)n(-c2ccc(C)c(C)c2)[nH]1` [Compound 2], the “confirmation of dual DSF hits in the orthogonal experiments” value (from here on “confirmation of dual DSF hits”) in test [1] was “confirmed active”.
With `Oc1ccc(-c2ccc(F)cc2F)cc1` [Compound 9], the figures for the Kd on sEH-H and on LTA4H were 3.5 µM and 5.3 µM, respectively. Also, the “confirmation of dual DSF hits” value in test [1] was “confirmed active”.
In the case of `Fc1ccc(-c2c[nH]c3ccccc23)cc1` [Compound 10], the Kd at sEH-H worked out at 0.86 µM; on LTA4H it was 1.7 µM. Moreover, the “confirmation of dual DSF hits” value in test [1] is on record as “confirmed active”.
